Results: patent USRE42890E1, “Furazanobenzimidazoles” (Basilea Pharmaceutica AG, priority 2003, dated 2011)

Tests used:
HeLa = test: MTS proliferation assay, HeLa; format: cell-based, human; conditions: 72 h incubation, read-out: MTS proliferation assay IC 50 HeLa
In short: (§1)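 Human lines, EGFP-transfected or not, grow in RPMI-1640 plus 5% or 10% FCS and 2-mercaptoethanol. They receive test compound for 72 h at final concentrations of 10, 3, 1 and 0.3 μM, and MTS conversion is measured at 492 nm.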

HT1080 = test: MTS proliferation assay, HT1080; format: cell-based, human; conditions: HT1080, 72 h incubation; read-out: MTS proliferation assay IC 50 HT1080
In short: as §1

[1] = system: adherent cells or suspension cells; test: Hoechst 33342 nuclear staining (fraction of apoptotic nuclei); format: cell-based; set-up: key: 0 relating to no activity; 1 relating to weak activity comprising less than 70% of the cells; score 2 relating to strong activity comprising more than 70% of the cells
Jily = test: MTS proliferation assay, Jily; format: cell-based; conditions: 72 h incubation, read-out: MTS proliferation assay IC 50 Jily
In short: (§2)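 Seed cells in complete RPMI-1640 medium and allow 24 h attachment. Add compounds to final 10 μM, 3 μM, 1 μM or 0.3 μM and incubate 72 h at 37° C. Add MTS, incubate 3 h more, then measure absorption at 492 nm.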

Jurkat = test: MTS proliferation assay, Jurkat; format: cell-based, human; conditions: 72 h incubation, read-out: MTS proliferation assay IC 50 Jurkat
In short: as §1

MRC5 = test: MTS proliferation assay, MRC5; format: cell-based; conditions: MRC5, 72 h incubation; read-out: MTS proliferation assay IC 50 MRC5
In short: as §2

Row | Structure (SMILES) | IC50 (HeLa) [nM] | IC50 (HT1080) [nM] | Hoechst 33342 nuclear staining score ([1]; H460, conc 0.01 μm) | Hoechst 33342 nuclear staining score ([1]; H460, conc 0.1 μm) | Hoechst 33342 nuclear staining score ([1]; H460, conc 1 μm) | Hoechst 33342 nuclear staining score ([1]; HeLa, conc 0.01 μm) | Hoechst 33342 nuclear staining score ([1]; HeLa, conc 0.1 μm) | Hoechst 33342 nuclear staining score ([1]; HeLa, conc 1 μm) | Hoechst 33342 nuclear staining score ([1]; Jily, conc 0.01 μm) | Hoechst 33342 nuclear staining score ([1]; Jily, conc 0.1 μm) | Hoechst 33342 nuclear staining score ([1]; Jily, conc 1 μm) | Hoechst 33342 nuclear staining score ([1]; Jurkat, conc 0.01 μm) | Hoechst 33342 nuclear staining score ([1]; Jurkat, conc 0.1 μm) | Hoechst 33342 nuclear staining score ([1]; Jurkat, conc 1 μm) | Hoechst 33342 nuclear staining score ([1]; MRC5, conc 0.01 μm) | Hoechst 33342 nuclear staining score ([1]; MRC5, conc 0.1 μm) | Hoechst 33342 nuclear staining score ([1]; MRC5, conc 1 μm) | Hoechst 33342 nuclear staining score ([1]; PBLs, conc 0.01 μm) | Hoechst 33342 nuclear staining score ([1]; PBLs, conc 0.1 μm) | Hoechst 33342 nuclear staining score ([1]; PBLs, conc 1 μm) | also measured
1 | CC(=O)Nc1ccc(C(=O)Cn2c(-c3nonc3N)nc3ccccc32)cc1[N+](=O)[O-] [Example 64] | 10 to 100 | 10 to 100 | 0 | 2 (score 2 relating to strong activity comprising more than 70% of the cells) | 2 (score 2 relating to strong activity comprising more than 70% of the cells) | 0 | 2 (score 2 relating to strong activity comprising more than 70% of the cells) | 2 (score 2 relating to strong activity comprising more than 70% of the cells) | 2 (score 2 relating to strong activity comprising more than 70% of the cells) | 2 (score 2 relating to strong activity comprising more than 70% of the cells) | 2 (score 2 relating to strong activity comprising more than 70% of the cells) | 2 (score 2 relating to strong activity comprising more than 70% of the cells) | 2 (score 2 relating to strong activity comprising more than 70% of the cells) | 2 (score 2 relating to strong activity comprising more than 70% of the cells) | 0 | 1 (1 relating to weak activity comprising less than 70% of the cells) | 1 (1 relating to weak activity comprising less than 70% of the cells) | 0 | 0 | 0 | IC50 (Jily): 10 to 100 nM; IC50 (Jurkat): 10 to 100 nM; IC50 (MRC5): 10 to 100 nM
2 | N#CCCNc1nonc1-c1nc2ccccc2n1CC(=O)c1ccc(N)cc1.O=C(O)C(=O)O [Example 61] | 10 to 100 | 10 to 100 | 0 | 2 (score 2 relating to strong activity comprising more than 70% of the cells) | 2 (score 2 relating to strong activity comprising more than 70% of the cells) | 0 | 2 (score 2 relating to strong activity comprising more than 70% of the cells) | 2 (score 2 relating to strong activity comprising more than 70% of the cells) | 0 | 2 (score 2 relating to strong activity comprising more than 70% of the cells) | 2 (score 2 relating to strong activity comprising more than 70% of the cells) | 0 | 2 (score 2 relating to strong activity comprising more than 70% of the cells) | 2 (score 2 relating to strong activity comprising more than 70% of the cells) | 0 | 2 (score 2 relating to strong activity comprising more than 70% of the cells) | 2 (score 2 relating to strong activity comprising more than 70% of the cells) | 0 | 0 | 0 | IC50 (Jily): 10 to 100 nM; IC50 (Jurkat): 10 to 100 nM; IC50 (MRC5): 10 to 100 nM
3 | CC(=O)Nc1ccc(C(=O)Cn2c(-c3nonc3N)nc3ccccc32)cc1 [Example 60] | 100 to 1000 | 100 to 1000 | 0 | 0 | 0 | 0 | 0 | 1 (1 relating to weak activity comprising less than 70% of the cells) | 0 | 0 | 2 (score 2 relating to strong activity comprising more than 70% of the cells) | 0 | 0 | 2 (score 2 relating to strong activity comprising more than 70% of the cells) | 0 | 0 | 2 (score 2 relating to strong activity comprising more than 70% of the cells) | 0 | 0 | 0 | IC50 (Jily): 100 to 1000 nM; IC50 (Jurkat): 100 to 1000 nM; IC50 (MRC5): 100 to 1000 nM
4 | Nc1ccc(C(=O)Cn2c(-c3nonc3N)nc3ccccc32)cn1 [Example 78] | < 10 | < 10 | 2 (score 2 relating to strong activity comprising more than 70% of the cells) | 2 (score 2 relating to strong activity comprising more than 70% of the cells) | 2 (score 2 relating to strong activity comprising more than 70% of the cells) | 2 (score 2 relating to strong activity comprising more than 70% of the cells) | 2 (score 2 relating to strong activity comprising more than 70% of the cells) | 2 (score 2 relating to strong activity comprising more than 70% of the cells) | 2 (score 2 relating to strong activity comprising more than 70% of the cells) | 2 (score 2 relating to strong activity comprising more than 70% of the cells) | 2 (score 2 relating to strong activity comprising more than 70% of the cells) | 2 (score 2 relating to strong activity comprising more than 70% of the cells) | 2 (score 2 relating to strong activity comprising more than 70% of the cells) | 2 (score 2 relating to strong activity comprising more than 70% of the cells) | 1 (1 relating to weak activity comprising less than 70% of the cells) | 2 (score 2 relating to strong activity comprising more than 70% of the cells) | 2 (score 2 relating to strong activity comprising more than 70% of the cells) | 0 | 0 | 0 | IC50 (Jily): < 10 nM; IC50 (Jurkat): < 10 nM; IC50 (MRC5): < 10 nM
